# From ChEMBL document CHEMBL1201862, “PubChem BioAssay data set” (2004)
#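 Growth conditions: 96-well plates. Treatment: test compound, 48 hours, 5 concentrations. Analysis: linear interpolation between bracketing concentrations; unreached endpoints set to highest concentration. GI50 = concentration required for 50% inhibition of growth.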 Calls of active or inactive are those of the source. Rule as the data show it: active = GI50 up to about 1.1 µM and inactive = higher.
# Key:
# Assay in all cases: growth of human tumour cells (NCI), 48 h
# A498 = tested on: A498
# A549 = tested on: A549
# ACHN = tested on: ACHN
# HOP-62 = tested on: HOP-62
# MDA-MB-231 = tested on: MDA-MB-231
# MDA-MB-435 = tested on: MDA-MB-435
# NCI-H23 = tested on: NCI-H23
# NCI/ADR-RES = tested on: NCI/ADR-RES
# OVCAR-3 = tested on: OVCAR-3
# OVCAR-4 = tested on: OVCAR-4
# RXF 393 = tested on: RXF 393
# SF-295 = tested on: SF-295
# SK-MEL-5 = tested on: SK-MEL-5
# SK-OV-3 = tested on: SK-OV-3
# SN12C = tested on: SN12C
# SNB-75 = tested on: SNB-75
# TK-10 = tested on: TK-10
# U-251 = tested on: U-251
# UO-31 = tested on: UO-31
SMILES,GI50 (A498),GI50 (A549),GI50 (ACHN),GI50 (HOP-62),GI50 (MDA-MB-231),GI50 (MDA-MB-435),GI50 (NCI-H23),GI50 (NCI/ADR-RES),GI50 (OVCAR-3),GI50 (OVCAR-4),GI50 (RXF 393),GI50 (SF-295),GI50 (SK-MEL-5),GI50 (SK-OV-3),GI50 (SN12C),GI50 (SNB-75),GI50 (TK-10),GI50 (U-251),GI50 (UO-31)
CC(C#N)(c1ccccc1)N(CCc1ccccc1)C(=O)Oc1ccccc1 (stereo unspecified),> 100 µM (inactive),> 100 µM (inactive),> 100 µM (inactive),50.2 µM (inactive),> 100 µM (inactive),> 100 µM (inactive),> 100 µM (inactive),> 100 µM (inactive),> 100 µM (inactive),30.7 µM (inactive),26.7 µM (inactive),> 100 µM (inactive),> 100 µM (inactive),> 100 µM (inactive),> 100 µM (inactive),25.9 µM (inactive),> 100 µM (inactive),> 100 µM (inactive),> 100 µM (inactive)
Cc1ccc(Nc2cc(=O)[nH]c(=O)[nH]2)cc1CS,> 100 µM (inactive),> 100 µM (inactive),77.4 µM (inactive),> 100 µM (inactive),> 100 µM (inactive),> 100 µM (inactive),> 100 µM (inactive),> 100 µM (inactive),> 100 µM (inactive),> 100 µM (inactive),89.9 µM (inactive),> 100 µM (inactive),> 100 µM (inactive),> 100 µM (inactive),> 100 µM (inactive),> 100 µM (inactive),> 100 µM (inactive),> 100 µM (inactive),> 100 µM (inactive)
CC1(C)SC2C(NC(=O)Cc3ccccc3)C(=O)N2C1C(=O)O (stereo unspecified),> 100 µM (inactive),> 100 µM (inactive),> 100 µM (inactive),> 100 µM (inactive),> 100 µM (inactive),> 100 µM (inactive),> 100 µM (inactive),> 100 µM (inactive),> 100 µM (inactive),> 100 µM (inactive),> 100 µM (inactive),> 100 µM (inactive),> 100 µM (inactive),> 100 µM (inactive),> 100 µM (inactive),> 100 µM (inactive),> 100 µM (inactive),> 100 µM (inactive),> 100 µM (inactive)
COc1ccc2c(c1)C(=O)C(=O)c1cc(O)c(OC)c(OC)c1-2,4.48 µM (inactive),2.73 µM (inactive),0.893 µM (active),0.845 µM (active),0.957 µM (active),0.115 µM (active),0.889 µM (active),1.03 µM (active),0.946 µM (active),0.719 µM (active),0.9 µM (active),0.805 µM (active),0.826 µM (active),1.5 µM (inactive),0.879 µM (active),1.18 µM (inactive),1.01 µM (active),0.863 µM (active),0.925 µM (active)
O=C(O)CCc1nc2c(n1Cc1ccccc1)C(=O)c1ccccc1C2=O,> 100 µM (inactive),50.4 µM (inactive),> 100 µM (inactive),> 100 µM (inactive),33.5 µM (inactive),19.2 µM (inactive),30.3 µM (inactive),59.6 µM (inactive),27.9 µM (inactive),> 100 µM (inactive),24.9 µM (inactive),59.6 µM (inactive),21.2 µM (inactive),69.3 µM (inactive),44.5 µM (inactive),> 100 µM (inactive),34.1 µM (inactive),56 µM (inactive),30.8 µM (inactive)
O=C(O)C1CSC2(CCCN(Cc3ccccc3)C2)N1 (stereo unspecified),> 100 µM (inactive),> 100 µM (inactive),> 100 µM (inactive),> 100 µM (inactive),> 100 µM (inactive),> 76.7 µM (inactive),> 100 µM (inactive),> 100 µM (inactive),> 100 µM (inactive),> 100 µM (inactive),> 100 µM (inactive),> 100 µM (inactive),> 100 µM (inactive),> 100 µM (inactive),> 100 µM (inactive),> 100 µM (inactive),> 100 µM (inactive),> 100 µM (inactive),> 100 µM (inactive)
O=c1c2ncn(C3CCCO3)c2n(-c2ccccc2)c(=S)n1-c1ccccc1 (stereo unspecified),> 100 µM (inactive),> 100 µM (inactive),> 100 µM (inactive),> 100 µM (inactive),> 100 µM (inactive),> 100 µM (inactive),> 100 µM (inactive),> 100 µM (inactive),> 100 µM (inactive),> 100 µM (inactive),> 100 µM (inactive),> 100 µM (inactive),> 100 µM (inactive),> 100 µM (inactive),> 100 µM (inactive),97.7 µM (inactive),> 100 µM (inactive),> 100 µM (inactive),> 100 µM (inactive)
CCCCCCCCCCCCC/C=C/[C@@H](O)[C@H](COC1OC(CO)C(OC2OC(CO)C(O)C(OC3(C(=O)O)CC(O)C(NC(C)=O)C(C(O)C(O)CO)O3)C2O)C(O)C1O)N=[N+]=[N-] (stereo partly specified),47.2 µM (inactive),> 100 µM (inactive),> 100 µM (inactive),20.5 µM (inactive),> 100 µM (inactive),> 100 µM (inactive),> 100 µM (inactive),21.8 µM (inactive),> 100 µM (inactive),> 100 µM (inactive),20.7 µM (inactive),26.4 µM (inactive),17.4 µM (inactive),31.2 µM (inactive),> 100 µM (inactive),15.9 µM (inactive),> 100 µM (inactive),19.9 µM (inactive),23 µM (inactive)
COc1cc(/C=C2/C[C@H]3[C@@H]4CCC5=CC(=O)CC[C@]5(C)[C@H]4CC[C@]3(C)NC2=O)cc(OC)c1OC,11.6 µM (inactive),20.6 µM (inactive),26.4 µM (inactive),27.9 µM (inactive),19.7 µM (inactive),19.5 µM (inactive),21.3 µM (inactive),25.1 µM (inactive),43.7 µM (inactive),39.4 µM (inactive),12.5 µM (inactive),20 µM (inactive),11.9 µM (inactive),30.7 µM (inactive),22.1 µM (inactive),15.6 µM (inactive),16.2 µM (inactive),19.5 µM (inactive),0.9 µM (active)
Cc1cc2nn(C3CCCCO3)nc2cc1C (stereo unspecified),60.4 µM (inactive),> 100 µM (inactive),> 100 µM (inactive),> 100 µM (inactive),> 100 µM (inactive),> 100 µM (inactive),> 100 µM (inactive),> 100 µM (inactive),> 100 µM (inactive),> 100 µM (inactive),> 100 µM (inactive),> 100 µM (inactive),> 100 µM (inactive),> 100 µM (inactive),> 100 µM (inactive),> 100 µM (inactive),> 100 µM (inactive),> 100 µM (inactive),75.7 µM (inactive)
C[C@@]12C(=O)OC(=O)[C@]1(C)[C@H]1CC[C@@H]2O1 [CANTHARIDIN],1.12 µM (inactive),0.918 µM (active),1.18 µM (inactive),2.44 µM (inactive),1.33 µM (inactive),1.89 µM (inactive),5.07 µM (inactive),6.5 µM (inactive),0.759 µM (active),2.58 µM (inactive),0.484 µM (active),1.37 µM (inactive),0.973 µM (active),2.17 µM (inactive),2.01 µM (inactive),0.472 µM (active),0.313 µM (active),1.41 µM (inactive),2.64 µM (inactive)
COc1cc2c(cc1OCCCCOc1cc(-c3ccc(F)cc3)nc(C)n1)N=C[C@@H]1CCCN1C2=O,1.01 µM (active),1.15 µM (inactive),0.189 µM (active),0.451 µM (active),1.04 µM (active),0.652 µM (active),0.468 µM (active),0.45 µM (active),0.336 µM (active),0.26 µM (active),0.429 µM (active),0.303 µM (active),0.593 µM (active),3.19 µM (inactive),0.796 µM (active),0.723 µM (active),0.224 µM (active),0.2 µM (active),0.5 µM (active)
O=C1c2c(Br)sc(Br)c2[C@H]2NC(=S)O[C@@H]12,23.5 µM (inactive),20.8 µM (inactive),17.7 µM (inactive),18 µM (inactive),17.9 µM (inactive),13.8 µM (inactive),14.8 µM (inactive),21.4 µM (inactive),7.94 µM (inactive),17.1 µM (inactive),13.3 µM (inactive),20.6 µM (inactive),15.8 µM (inactive),18.7 µM (inactive),17.6 µM (inactive),19.1 µM (inactive),29.6 µM (inactive),13.2 µM (inactive),15.3 µM (inactive)
COc1cccc(-c2cc(O)c3cc(Cl)cnc3n2)c1,0.131 µM (active),0.162 µM (active),0.127 µM (active),0.0809 µM (active),0.338 µM (active),0.0155 µM (active),0.254 µM (active),0.0341 µM (active),0.0369 µM (active),6.17 µM (inactive),0.0698 µM (active),0.0687 µM (active),0.0495 µM (active),0.152 µM (active),0.143 µM (active),33.5 µM (inactive),12.9 µM (inactive),0.0693 µM (active),0.313 µM (active)
